# According to publication PMC10819887, “Production of AFB1 High-Specificity Monoclonal Antibody by Three-Stage Screening Combined with the De-Homologation of Antibodies and the Development of High-Throughput icELISA” (Toxins, 2023):
# Values joined by “and” are separate entries in the source; they are usually repeats but may differ in a detail not shown here. Equal entries are not always repeated.
# Experiments:
# [1] = test system: anti-AFB1 mAb (ZFG8); assay type: binding, mouse
# [2] = test system: ZFG8 monoclonal antibody; experiment: icELISA working-condition optimization and standard curves (ZFG8, AFB1-BSA); assay type: binding, mouse
substance,measurement,setting,value
aflatoxin B1 [AFB1],Cross-Reactivity (%),[1],100%
same,IC50,[1],0.3162 ng/mL
same,IC20-IC80,[2],0.04197 to 0.6299 ng/mL and 0.03329 to 0.9399 ng/mL
same,IC20-IC80 (linear detection range),[2],0.0422 to 1.293 ng/mL
same,IC50,[2]; pH 7.4,0.1811 ng/mL
